Among the data in patent US5545736A, “6-thiono-5,6-dihydro-dibenz[B,E] azepin-11-one-11-oximes” (Bayer Aktiengesellschaft, priority 1991, dated 1996) are IC50 values, retold here.

Read-outs that look alike come from different tables or passages of the source.

The subject of this test is HIV. The test can be described thus: HIV infection in cell culture (syncytia formation; PBLs or H9 cells). The class given is cell-based. The conditions noted are these: read-out: IC50 (concentration at which 50% of the virus-induced syncytia were suppressed). On the procedure:
The HIV test was carried out with slight modifications according to the method of Pauwels et al. [cf. Journal of Virological Methods 20, (1988), 309-321].
Normal human blood lymphocytes (PBLs) were concentrated by means of Ficoll-Hypaque and stimulated with phytohaemagglutinin (90 μg/ml) and interleukin-2 (40 U/ml) in RPMI 1640 and 20% foetal calf serum. For infection with the infectious HIV, PBLs were pelleted and the cell pellet was then suspended in 1 ml of HIV virus adsorption solution and incubated for 1 hour at 37° C.
Alternatively, HIV-susceptible H9 cells were employed instead of normal human blood lymphocytes for testing the antiviral effects of the compounds according to the invention.
The virus adsorption solution was centrifuged and the infected cell pellet was taken up in growth medium so that a concentration of 1×10^5 cells per ml was established. The cells infected in this way were pipetted into the wells of 96-well microtiter plates to give 1×10^4 cells/well.
The first vertical row of the microtiter plate contained only growth medium and cells which had not been infected, but otherwise treated exactly as described above (cell control). The second vertical row of the microtiter plate contained only HIV-infected cells (virus control) in growth medium. The other wells contained the compounds according to the invention in differing concentrations, starting from the wells of the 3rd vertical row of the microtiter plate, from which the test substances were diluted 2^10 times in 2-fold steps.
The test batches were incubated at 37° C. until, in the untreated virus control, the syncytia formation typical of HIV occurred (between day 3 and 6 after infection), which was then microscopically assessed. Under these test conditions, in the untreated virus control about 20-50 syncytia resulted, while the untreated cell control contained no syncytia.
The IC50 values were determined as the concentration of the treated and infected cells at which 50% (about 10-20 syncytia) of the virus-induced syncytia were suppressed by treatment with the compound according to the invention.

The mark [1] stands for this setting: Human immunodeficiency virus 1, 72 h, HIV-infected PBLs or alternatively H9 cells, 37° C., read between day 3 and 6 after infection.

Consider `Cc1ccnc2c1NC(=O)c1cccnc1N2C1CC1` [BIRG 587, reference compound], for which the IC50 (Human immunodeficiency virus 1, H9, 72 h) was 90 nM.

As for `CN(C)CCON=c1c2cc(Cl)ccc2[nH]c(=S)c2ccccc12` [Example 2], under setting [1], the IC50 is 1500 nM.

`S=c1[nH]c2ccc(Cl)cc2c(=NOCCN2CCOCC2)c2ccccc12` [Example 3]: the IC50 under setting [1] was found to be 380 nM.

`CON=c1c2cc(Cl)ccc2[nH]c(=S)c2ccccc12` [Example 4]: under setting [1], the IC50 stood at 380 nM.
